According to PubChem BioAssay AID514 (SGCOxCompounds, 2006):

These compounds were tested against STE20-like serine/threonine-protein kinase (Homo sapiens) (UniProt Q9H2G2) (assay: ligand-induced SLK melting temperature shift – biophysical, purified human kinase, DSF (AID 514)). Details: differential scanning fluorimetry Tm shift, at 10 µM, protein 2 µM, buffer 10 mM HEPES, pH 7.5, NaCl 150 mM, hits give high values.
STE20-like serine/threonine-protein kinase (Homo sapiens), sequence (Q9H2G2 whole entry, looked up): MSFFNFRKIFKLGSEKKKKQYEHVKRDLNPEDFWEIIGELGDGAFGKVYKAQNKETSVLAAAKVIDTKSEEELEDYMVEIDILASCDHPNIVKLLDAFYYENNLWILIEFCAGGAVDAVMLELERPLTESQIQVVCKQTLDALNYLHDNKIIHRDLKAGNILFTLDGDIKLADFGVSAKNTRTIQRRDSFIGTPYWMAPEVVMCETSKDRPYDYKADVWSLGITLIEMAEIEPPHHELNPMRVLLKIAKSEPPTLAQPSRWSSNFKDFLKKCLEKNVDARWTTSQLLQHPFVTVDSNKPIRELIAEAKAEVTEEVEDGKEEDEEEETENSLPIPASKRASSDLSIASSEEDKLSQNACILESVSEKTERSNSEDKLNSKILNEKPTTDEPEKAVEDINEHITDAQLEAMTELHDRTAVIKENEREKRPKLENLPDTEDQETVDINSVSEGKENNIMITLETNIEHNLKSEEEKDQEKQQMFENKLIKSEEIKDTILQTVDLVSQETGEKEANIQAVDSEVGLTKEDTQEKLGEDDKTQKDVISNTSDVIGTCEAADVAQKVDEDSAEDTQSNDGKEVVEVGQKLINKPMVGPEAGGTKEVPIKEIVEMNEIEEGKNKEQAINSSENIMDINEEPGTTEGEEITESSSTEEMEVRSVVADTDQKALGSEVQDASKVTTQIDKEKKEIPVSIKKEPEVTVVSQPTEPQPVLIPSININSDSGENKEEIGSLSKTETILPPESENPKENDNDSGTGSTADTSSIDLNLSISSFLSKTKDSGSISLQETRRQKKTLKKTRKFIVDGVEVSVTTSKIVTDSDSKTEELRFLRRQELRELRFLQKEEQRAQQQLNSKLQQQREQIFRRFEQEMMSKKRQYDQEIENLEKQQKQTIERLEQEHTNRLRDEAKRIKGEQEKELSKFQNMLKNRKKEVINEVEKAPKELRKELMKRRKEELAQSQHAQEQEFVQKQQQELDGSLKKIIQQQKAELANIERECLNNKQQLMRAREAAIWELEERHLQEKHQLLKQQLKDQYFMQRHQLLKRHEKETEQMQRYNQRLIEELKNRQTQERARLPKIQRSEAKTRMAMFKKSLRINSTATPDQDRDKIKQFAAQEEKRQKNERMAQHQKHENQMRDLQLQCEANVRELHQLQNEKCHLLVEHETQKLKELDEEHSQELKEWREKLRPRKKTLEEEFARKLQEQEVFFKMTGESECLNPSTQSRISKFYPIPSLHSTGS
`Oc1ccc(Nc2nccn3c(-c4cn[nH]c4)cnc23)cc1` gave a Tm shift of 4.7 C. For `N#Cc1cnc2cnc(NCc3cccnc3)cc2c1Nc1ccc(F)c(Cl)c1`, the Tm shift was 6.1 C. `NC(=O)Nc1sc(-c2ccccc2)cc1C(N)=O` gave a Tm shift of 3.5 C. Compound `Nc1ncnc2c1c(I)cn2[C@@H]1O[C@H](CO)C(O)C1O` (some centres not stated) has a Tm shift of 4.2 C. Compound `CC(C)[C@@H](CO)Nc1ccc2ncc(-c3ccc(C#N)cc3)n2n1` has a Tm shift of 3.7 C. For `COc1cc2ncnc(Nc3cccc(O)c3)c2cc1OC`, the Tm shift was 3.2 C. Work on `O=C1NC(=O)C(c2c[nH]c3ccccc23)=C1c1c[nH]c2ccccc12` yielded a Tm shift of 4.6 C. `COc1ccccc1-c1cnc2[nH]c(=O)n(C3CCCC3)c2n1` showed a Tm shift of 3.3 C. Compound `COc1cc2ncnc(Nc3ccc(NC(=O)c4ccccc4)cc3)c2cc1OC` has a Tm shift of 5.5 C. With `O=C1NC(=O)C(c2cn(CCCn3ccnc3)c3ccccc23)=C1Nc1ccccc1` the Tm shift was 6.3 C. Compound `COc1c(C=O)c(O)cc2c1C(=O)c1ccccc1C2=O` has a Tm shift of 5.4 C. Compound `Nc1nc(Nc2cccc(Cl)c2)sc1C(=O)c1ccc(F)cc1` has a Tm shift of 3.7 C. `ON(O)c1ccc(-c2nc(-c3ccc(F)cc3)c(-c3ccncc3)[nH]2)cc1` was tested, and the Tm shift was 5.4 C. Work on `COc1ccc(Cl)cc1NC(=O)Nc1cc(C)nc2ccccc12` yielded a Tm shift of 3.4 C. `CCN(CC)CCNC(=O)c1c(C)[nH]c(/C=C2\C(=O)Nc3ccc(Cl)cc32)c1C` showed a Tm shift of 7.5 C. Compound `Nc1nc(Nc2ccc(S(N)(=O)=O)cc2)nn1C(=S)Nc1c(F)cccc1F` has a Tm shift of 12.1 C. `COc1ccc(Nc2nc(N)c(C(=O)c3ccc(OC)cc3)s2)cc1` was tested, and the Tm shift was 3.9 C. For `Cc1cc(Nc2nc(-c3ccccc3)nc3ccccc23)n[nH]1`, the Tm shift was 6.4 C. `FC(F)(F)Oc1cccc(-c2cnc3ccc(NC4CCOCC4)nn23)c1` was tested, and the Tm shift was 3.6 C. `COc1ccc(C(=O)c2sc(Nc3cccc(C(F)(F)F)c3)nc2N)cc1` was tested, and the Tm shift was 4.5 C. `CC(O)(O)C1(O)C[C@@H]2O[C@@]1(C)n1c3ccccc3c3c4c(c5c6ccccc6n2c5c31)C(=O)NC4` (some centres not stated) showed a Tm shift of 6.3 C. With `O=c1c(O)c(-c2ccc(O)c(O)c2)oc2cc(O)cc(O)c12` the Tm shift was 5.7 C. In the case of `COc1cc2ncnc(Nc3cccc(Br)c3)c2cc1OC`, the Tm shift is reported as 6.9 C. Work on `Clc1cccc(Nc2ccn3ncc(-c4ccc5c(c4)OCO5)c3n2)c1` yielded a Tm shift of 3.7 C. `COc1cncc(-c2cnc3ccc(NC4CCOCC4)nn23)c1` was tested, and the Tm shift was 3.4 C. `CCCNC(=O)Nc1ccc(Oc2ncnc3cc(OC)c(OC)cc23)cc1Cl` gave a Tm shift of 5.8 C. For `O=C1Nc2ccccc2/C1=C/c1ccc[nH]1`, the Tm shift was 3.1 C. With `CN(C)CC1CCn2c(c(C3=C(c4cn(C)c5ccccc45)C(=O)NC3=O)c3ccccc32)C1` (configuration not stated) the Tm shift was 4.2 C. `CC(C)[C@@H](CO)Nc1ccc2ncc(-c3cccc(O)c3)n2n1` gave a Tm shift of 4.5 C. `Oc1cccc(-c2cnc3ccc(NCC4CC4)nn23)c1` showed a Tm shift of 3.2 C. `Fc1ccc(-c2cnc3ccc(NC4CCOCC4)nn23)cc1` gave a Tm shift of 3.6 C. `Nc1cccc(-c2cc3c(Oc4cccc(O)c4)ncnc3[nH]2)c1` showed a Tm shift of 5.7 C. Work on `Nc1cccc(-c2cnn3ccc(Nc4cccc(Cl)c4)nc23)c1` yielded a Tm shift of 3.7 C. `CC(C)[C@@H](CO)Nc1ccc2ncc(-c3cccc(C(F)(F)F)c3)n2n1` was tested, and the Tm shift was 4.8 C. With `COc1ccc(Nc2nc(N)c(C(=O)c3ccc(Cl)cc3)s2)cc1` the Tm shift was 4.4 C. `Clc1ccc(-c2cnc3ccc(NC4CCOCC4)nn23)cc1` showed a Tm shift of 3.1 C. In the case of `Nc1cc2ncnc(Nc3cccc(Br)c3)c2cc1N`, the Tm shift is reported as 5.7 C. With `O=Nc1c(-c2c(O)[nH]c3ccc(I)cc23)[nH]c2ccccc12` the Tm shift was 3.7 C. In the case of `Cn1c(O)c(C2=c3ccccc3=NC2=O)[nH]c1=S`, the Tm shift is reported as 3.4 C. `Cc1[nH]c(/C=C2\C(=O)Nc3ccc(S(=O)(=O)N(C)c4cccc(Cl)c4)cc32)c(C)c1C(=O)N1CCN(C)CC1` showed a Tm shift of 7.7 C. `CCOc1cc2ncnc(Nc3cccc(Br)c3)c2cc1OCC` gave a Tm shift of 7.9 C. `O=C1NCc2c1c1c3ccccc3[nH]c1c1[nH]c3ccccc3c21` showed a Tm shift of 5.1 C. Work on `O=C1Nc2ccccc2/C1=C\c1cnc[nH]1` yielded a Tm shift of 3.3 C. With `O=C1Nc2ccc(Br)cc2/C1=C/c1cc2c([nH]1)CCCC2` the Tm shift was 3.6 C. `CC(C)[C@@H](CO)Nc1ccc2ncc(-c3cccc(OC(F)(F)F)c3)n2n1` showed a Tm shift of 4.3 C. Compound `O=Nc1c(-c2c(O)[nH]c3ccccc23)[nH]c2ccccc12` has a Tm shift of 3.9 C. Work on `O=Nc1c(-c2c(O)[nH]c3cc(Br)ccc23)[nH]c2ccccc12` yielded a Tm shift of 4.6 C. Compound `CN(C)S(O)(O)c1ccc2c(c1)/C(=C/c1cc3c([nH]1)CCCC3)C(=O)N2` has a Tm shift of 6.2 C. `CNC(=O)c1cc(Oc2ccc(NC(=O)Nc3ccc(C)c(C(F)(F)F)c3)cc2)ccn1` showed a Tm shift of 8 C. With `CC(C)[C@@H](CO)Nc1ccc2ncc(-c3cccc(F)c3)n2n1` the Tm shift was 4.2 C. Work on `Clc1cccc(-c2cnc3ccc(NCCc4ccccn4)nn23)c1` yielded a Tm shift of 3.5 C. With `Clc1cccc(-c2cnc3ccc(NC4CCOCC4)nn23)c1` the Tm shift was 3.9 C. `CC(=O)c1cccc(-c2cnc3ccc(N[C@H](CO)C(C)C)nn23)c1` gave a Tm shift of 3.7 C. In the case of `c1ccc(-c2cnc3ccc(NCc4ccco4)nn23)cc1`, the Tm shift is reported as 3.1 C. With `CC(C)(C)n1nc(-c2cccc3ccccc23)c2c(N)ncnc21` the Tm shift was 6.1 C. `O=C(c1ccc(Nc2nccc(-c3cc4ccccc4s3)n2)cc1)N1CCC(N2CCCC2)CC1` was tested, and the Tm shift was 7.3 C. For `O=C(Nc1cccc(Nc2nccc(Nc3cccc(C(F)(F)F)c3)n2)c1)C1CC1`, the Tm shift was 3.7 C. `Oc1cccc(-c2cnc3ccc(NC4CCOCC4)nn23)c1` showed a Tm shift of 4.6 C. In the case of `COc1ccc2c(c1)/C(=C/c1cnc[nH]1)C(=O)N2`, the Tm shift is reported as 3.3 C. `Oc1ccc(-c2nc(-c3ccc(F)cc3)c(-c3ccncc3)[nH]2)cc1` gave a Tm shift of 4.4 C. `O=C(Nc1cccc(Nc2cc(Nc3cccc(C(F)(F)F)c3)ncn2)c1)C1CC1` gave a Tm shift of 3.4 C. `CCC(CO)Nc1ccc2ncc(-c3ccc(F)c(Cl)c3)n2n1` (configuration not stated) showed a Tm shift of 3.8 C. With `NCCCn1cc(C2=C(c3c[nH]c4ccccc34)C(=O)NC2=O)c2ccccc21` the Tm shift was 7.6 C. Work on `CCC(CO)Nc1ccc2ncc(-c3ccc(O)cc3)n2n1` (configuration not stated) yielded a Tm shift of 3.7 C. Compound `CC(C)C(CO)Nc1nc(Nc2cc(N)cc(Cl)c2)c2ncn(C(C)C)c2n1` (configuration not stated) has a Tm shift of 6.2 C. In the case of `N=C(N)SCCCn1cc(C2=C(c3c[nH]c4ccccc34)C(=O)NC2=O)c2ccccc21`, the Tm shift is reported as 10.6 C. `CCn1cnc2c(Nc3cccc(Cl)c3)nc(N[C@@H]3CCCC[C@@H]3N)nc21` gave a Tm shift of 6.4 C. `c1csc(-c2cnc3ccc(NCC4CC4)nn23)c1` gave a Tm shift of 3.3 C. Compound `CN(C)CCCn1cc(C2=C(c3c[nH]c4ccccc34)C(=O)NC2=O)c2ccccc21` has a Tm shift of 6.8 C. `COc1cncc(-c2cnc3ccc(N[C@H](CO)C(C)C)nn23)c1` showed a Tm shift of 3.1 C. `OCC(O)CCO/N=C1/C(c2c(O)[nH]c3ccccc23)=Nc2ccccc21` (configuration not stated) showed a Tm shift of 4.7 C. `Fc1cccc(-c2cnc3ccc(NC4CCOCC4)nn23)c1` showed a Tm shift of 4.1 C. With `CC(C)(C)n1nc(-c2ccc(Cl)cc2)c2c(N)ncnc21` the Tm shift was 3.6 C. Compound `Nc1ccc(-c2cnn3ccc(Nc4cccc(Cl)c4)nc23)cc1` has a Tm shift of 4 C. With `Cn1cc(/C=C2\C(=O)Nc3ccc(S(N)(=O)=O)cc32)c2ccccc21` the Tm shift was 5 C. `COc1cccc(-c2cnn3ccc(Nc4cccc(Cl)c4)nc23)c1` gave a Tm shift of 4.7 C. Compound `COc1cc(/C=C/C(=O)CC(=O)/C=C/c2ccc(O)c(OC)c2)ccc1O` has a Tm shift of 3.2 C. `CC(C)[C@@H](CO)Nc1ccc2ncc(-c3cccc(Cl)c3)n2n1` showed a Tm shift of 4.7 C. With `Cc1nc(N)sc1-c1ccnc(Nc2cccc(-n3oo3)c2)n1` the Tm shift was 3.6 C. Work on `Cn1cc(C2=C(c3c4n(c5ccccc35)CCC(CN)C4)C(=O)NC2=O)c2ccccc21` (configuration not stated) yielded a Tm shift of 4.5 C. Compound `NCCNc1ncc(C(N)=O)c(Nc2cccc(C(F)(F)F)c2)n1` has a Tm shift of 3.3 C. Compound `CCC(CO)Nc1ccc2ncc(-c3cccc(OC(F)(F)F)c3)n2n1` (configuration not stated) has a Tm shift of 3.6 C.
